{"source": "patent US10157261B2", "about": "“Transcriptome-wide design of selective, bioactive small molecules targeting RNA” (The Scripps Research Institute, priority 2013, dated 2018)", "key": {"[1]": {"test_system": "miR-96", "test": "qRT-PCR of mature miRNA in MCF7 cells", "assay_type": "cell-based, human", "experimental": "(§1) MCF7 cells were cultured in either 6-well or 12-well plates, and total RNA was extracted using TRIzol LS reagent (Ambion) per the manufacturer's protocol. Approximately 200 ng of total RNA was used in reverse transcription (RT) reactions, which were completed using a Taqman MicroRNA RT Kit (Applied Biosystems) or a miScript II RT kit (Qiagen) per the manufacturer's protocol. qRT-PCR was performed on a 7900HT Fast Real Time PCR System (Applied Biosystem) using Taqman Universal PCR Master Mix or power SYBR green master mix (Applied Biosystems). All primer sets for mature miRNAs were purchased from Applied Biosystems. The expression level of mature miRNAs was normalized to U6 small nuclear RNA.\n(§2) Pri-, pre-, and mature miR-96 RT-PCR products were analyzed on a denaturing 10% polyacrylamide gel stained with ethidium bromide. Expression levels were normalized to GAPDH."}, "[2]": {"test_system": "MCF7 cells", "test": "APO BrdU TUNEL assay", "assay_type": "cell-based, human", "details": "40 μM", "experimental": "ON-TARGETplus SMARTpool FOXO1 siRNA and ONTARGETplus GAPD Control Pool were purchased from Dharmacon (Thermo Scientific) and were used at a final concentration of 100 nM. MCF7 cells were reverse transfected in a 6-well plate using Lipofectamine RNAiMAX reagent (Invitrogen) per the manufacturer's protocol.\nMCF7 cells were grown in 6-well plates to 70-80% confluency. For experiments in which RNAi was used to knock down FOXO1 or GAPDH expression, the cells were first transfected as described above. Cells were treated with small molecules for 20 h followed by completion of an APO BrdU TUNEL assay (Molecular Probes) per the manufacturer's protocol. Flow cytometry was performed using a BD LSRII instrument (BD Biosciences). At least 10,000 events were used for analysis."}, "[3]": {"test_system": "miR-183", "test": "qRT-PCR of mature miRNA in MCF7 cells", "assay_type": "cell-based, human", "details": "40 μM, 20 h", "experimental": "as §1"}, "[4]": {"test_system": "miR-182", "test": "qRT-PCR of mature miRNA in MCF7 cells", "assay_type": "cell-based, human", "details": "40 μM, 20 h", "experimental": "as §1"}, "[5]": {"test_system": "5′UUU/3′AUA RNA (loop near the processing site of miRNA-96 precursor)", "test": "in solution, fluorescence-based binding affinity assay", "design": "species or system human", "experimental": "(§3) Dissociation constants were determined using an in solution, fluorescence-based assay (Disney et al., J. Am. Chem. Soc. 130, 11185-11194 (2008)). The RNA of interest was folded in 1× Assay Buffer (8 mM Na2HPO4, pH 7.0, 190 mM NaCl, 1 mM EDTA and 40 μg/mL BSA) by heating at 60° C. for 5 min and slowly cooling to room temperature. A selected fluorescently labeled compound was added to a final concentration of 50 nM for compounds 1-Fl, 4-Fl, and 5-Fl or 500 nM for compound 2. Serial dilutions (1:2) were then completed in 1× Assay Buffer supplemented with 50 nM of compounds 1-Fl, 4-Fl, or 5-Fl or 500 nM of 2. The solutions were incubated for 30 min at room temperature and then transferred to a 96-well plate and fluorescence intensity measured. The change in fluorescence intensity as a function of RNA concentration was fit to the following equation (Wang & Rando, Chem. Biol. 2, 281-290. (1995)): I=I0+0.5Δε(([FL]0+[RNA]0+Kt)−(([FL]0+[RNA]0+Kt)^2−4[FL]0[RNA]0)^0.5) where I and I0 are the observed fluorescence intensity in the presence and absence of RNA respectively, Δε is the difference between the fluorescence intensity in the absence of RNA and in the presence of infinite RNA concentration, [FL]0 and [RNA]0 are the concentrations of small molecule and RNA, respectively, and Kt is the dissociation constant.\n(§4) The targetable loops (motifs) were embedded into C1 (FIG. 1) so that affinity measurements could be completed. The secondary structures of the RNAs as predicted by RNAstructure (Mathews et al., Proc. Natl. Acad. Sci. U.S.A. 101, 7287-7292 (2004).) and representative binding curves are shown in (FIG. 4D-4I)."}, "[6]": {"test_system": "miR-96-FOXO1 luciferase model system", "test": "Dual luciferase assay, miR-96 3′ UTR target", "assay_type": "cell-based, human", "details": "40 μM, MCF7 cells", "experimental": "MCF7 cells were grown in 96-well plates to ˜80% confluency in complete growth medium. The cells were transiently transfected with 100 ng of plasmid encoding either the miR-96 3′ UTR target or a mutated 3′ UTR target using Lipofectamine 2000 per the manufacturer's protocol. Approximately 5 h post transfection, the small molecule of interest was added in complete growth medium, and the cells were incubated for another 20 h. Luciferase activity was then measured using a Dual Glo Luciferase Assay System (Promega) per the manufacturer's protocol. The values reported are the average of at least three measurements, and errors are the corresponding standard deviations."}, "[7]": {"test_system": "miR-210", "test": "qRT-PCR of mature miRNA", "assay_type": "cell-based, human", "details": "500 nM, ACHN renal cancer cell line", "experimental": "as §1"}, "[8]": {"target": "C1 (cassette RNA)", "test": "in solution, fluorescence-based binding affinity assay", "details": "read-out: Dissociation constants, C1", "experimental": "as §3, with “constant. […]” for “constant.”"}, "[9]": {"target": "H Hairpin (DNA hairpin)", "test": "in solution, fluorescence-based binding affinity assay", "details": "read-out: Dissociation constants, H Hairpin", "experimental": "as §3, with “constant. […]” for “constant.”"}, "[10]": {"test_system": "pre-miR-96", "test": "qRT-PCR of pre-miR-96 in MCF7 cells", "assay_type": "cell-based, human", "details": "50 nM", "experimental": "as §2"}, "[11]": {"test_system": "FOXO1 protein", "test": "Western blotting", "assay_type": "cell-based, human", "details": "50 nM, MCF7 cells", "experimental": "MCF7 cells were grown in 6-well plates to ˜80% confluency in complete growth medium. […] Total protein was extracted using M-PER Mammalian Protein Extraction Reagent (Pierce Biotechnology) using the manufacturer's protocol. Extracted total protein was quantified using a Micro BCA Protein Assay Kit (Pierce Biotechnology). Approximately 40 μg of total protein was resolved on an 8% SDS-polyacrylamide gel, and then transferred to a PVDF membrane. The membrane was briefly washed with 1× Tris-buffered saline (TBS), and then blocked in 5% milk in 1×TBST (1×TBS containing 0.1% Tween-20) for 1 h at room temperature. The membrane was then incubated in 1:1000 FOXO1 primary antibodies (Cell Signaling Technology) in 1×TBST containing 3% BSA overnight at 4° C. The membrane was washed with 1×TBST and incubated with 1:2000 anti-rabbit IgG horseradish-peroxidase secondary antibody conjugate (Cell Signaling Technology) in 1×TBS for 1 h at room temperature. After washing with 1×TBST, protein expression was quantified using SuperSignal West Pico Chemiluminescent Substrate (Pierce Biotechnology) per the manufacturer's protocol. The membrane was then stripped using 1× Stripping Buffer (200 mM glycine, pH 2.2 and 0.1% SDS) followed by washing in 1×TBS. […] Image J software from the National Institutes of Health was used to quantify band intensities."}, "[12]": {"target": "5′CGAUU/3′GGUAUA RNA", "test": "in solution, fluorescence-based binding affinity assay", "design": "species or system human", "details": "read-out: Dissociation constants, 5′CGAUU/3′GGUAUA", "experimental": "as §3, §4"}, "[13]": {"target": "5′CGA/3′GGU RNA", "test": "in solution, fluorescence-based binding affinity assay", "design": "species or system human", "details": "read-out: Dissociation constants, 5′CGA/3′GGU", "experimental": "as §3, §4"}, "[14]": {"test_system": "MCF10A (healthy breast cells)", "test": "Annexin V/PI assay", "assay_type": "cell-based, human", "details": "50 nM, 72 hours", "experimental": "Annexin V/PI Assays: MDA MB 231 or MCF-10A cells were grown in 6-well plates to 40-50% confluency. The cells were incubated with 50 nM of small molecule for 72 h and then detached from the surface using accutase. They were washed twice each with ice cold 1×DPBS and 1× Annexin Binding Buffer (50 mM Hepes (pH 7.4), 700 mM NaCl and 12.5 mM CaCl2). The cells were resuspended in 100 μL 1× Annexin Binding Buffer, and then 5 μL Annexin V-APC (eBioscience) were added. The solution was incubated for 10 min at room temperature followed by washing with 1× Annexin Binding Buffer. The cells were then stained with 1 μg/mL propidium iodide in 300 μL of 1× Annexin Binding Buffer for 15 min at room temperature. Flow cytometry was performed using a BD LSRII instrument (BD Biosciences). At least 10,000 events were used for analysis."}, "[15]": {"test_system": "pri-miR-96", "test": "qRT-PCR of pri-miR-96 in MCF7 cells", "assay_type": "cell-based, human", "experimental": "as §2"}}}
{"smiles": "C#CCCCC(=O)NCC1O[C@H](O[C@@H]2C(N)C[C@@H](N)C(O[C@@H]3OC(CO)[C@H](O)C(N)C3O)[C@H]2O)C(O)[C@@H](O)[C@@H]1O", "note": "(some centres unmarked) [Compound 3]", "values": [{"measurement": "effect on miR-96 expression", "setting": "[1]; 200 μM", "result": "a less, but significant, effect"}]}
{"smiles": "CN1CCN(c2ccc3nc(-c4ccc(OCCCC(=O)NCCCN=[N+]=[N-])cc4)[nH]c3c2)CC1", "note": "[Compound 5]", "values": [{"measurement": "induction of apoptosis", "setting": "[2]", "result": "do not induce apoptosis"}, {"measurement": "effect on miR-96 expression", "setting": "[1]; 40 μM, 20 h", "result": "do not affect"}, {"measurement": "effect on miR-183 expression", "setting": "[3]", "result": "do not affect"}, {"measurement": "effect on miR-182 expression", "setting": "[4]", "result": "do not affect"}, {"measurement": "binding affinity for the miR-96 precursor", "setting": "[5]", "result": "lack of binding affinity"}, {"measurement": "effect on luciferase expression", "setting": "[6]", "result": "no effect"}]}
{"smiles": "CN1CCN(c2ccc3nc(-c4ccc5nc(-c6cccc(OCCCC(=O)NCCCN=[N+]=[N-])c6)[nH]c5c4)[nH]c3c2)CC1", "note": "[Compound 2]", "values": [{"measurement": "induction of apoptosis", "setting": "[2]", "result": "do not induce apoptosis"}, {"measurement": "reduction of formation of miR-210", "setting": "[7]", "result": 60, "unit": "%"}, {"measurement": "effect on miR-96 expression", "setting": "[1]; 40 μM, 20 h", "result": "do not affect"}, {"measurement": "effect on miR-183 expression", "setting": "[3]", "result": "do not affect"}, {"measurement": "effect on miR-182 expression", "setting": "[4]", "result": "do not affect"}, {"measurement": "binding affinity for the miR-96 precursor", "setting": "[5]", "result": "lack of binding affinity"}, {"measurement": "effect on luciferase expression", "setting": "[6]", "result": "no effect"}]}
{"smiles": "CCCN(CC(=O)N(CCC)CC(=O)N(CC(N)=O)Cc1cn(CCCNC(=O)CCCOc2c(C(C)(C)C)cc(-c3nc4cc(N5CCN(C)CC5)ccc4[nH]3)cc2C(C)(C)C)nn1)C(=O)CCCOc1cccc(-c2nc3ccc(-c4nc5ccc(N6CCN(C)CC6)cc5[nH]4)cc3[nH]2)c1", "note": "[BSH-2-H]", "values": [{"measurement": "Kd", "setting": "[8]", "result": "> 4000", "unit": "nM"}, {"measurement": "Kd", "setting": "[9]", "result": "> 50000", "unit": "nM"}, {"measurement": "production of mature microRNA-96", "setting": "[1]; 50 nM", "result": "significantly inhibited production of the mature microRNA-96"}, {"measurement": "effect on mature miRNA-96 levels", "setting": "[1]; 1 μM, 0.5 μM and 0.05 μM, 24 hours", "result": "reduced mature miRNA-96 levels in a dose-dependent fashion"}, {"measurement": "production of pre-microRNA-96", "setting": "[10]", "result": "inhibiting production of the pre-microRNA-96"}, {"measurement": "increase in FOXO1 protein expressed", "setting": "[11]", "result": 2.5, "unit": "fold"}, {"measurement": "Kd", "setting": "[12]", "result": "85 ± 11", "unit": "nM"}, {"measurement": "Kd", "setting": "[5]; read-out: Dissociation constants, 5′UUU/3′AUA", "result": "1170 ± 279", "unit": "nM"}, {"measurement": "Kd", "setting": "[13]", "result": "900 ± 200", "unit": "nM"}, {"measurement": "effect on apoptosis in healthy breast cells", "setting": "[14]", "result": "no effect on apoptosis"}, {"measurement": "production of pri-microRNA-96", "setting": "[15]; 50 nM", "result": "boosting production of the pri-microRNA-96"}, {"measurement": "increase of pri-miRNA 96", "setting": "[15]; 24 hours", "result": "about 2.3 fold"}]}
